Patent US20240116857A1 (St. Louis University, priority 2022, published 2024)
≈ marks a conversion by molar mass, not a printed value. Read-outs that look alike come from different tables or passages of the source.

Tests used:
[1] = system: E. coli BW25113; test: MIC, 2-fold broth dilution, E. coli BW25113; type: cell-based, Escherichia coli; conditions: Escherichia coli
[2] = system: Pseudomonas aeruginosa MP 2019; test: MIC, 2-fold broth dilution; type: cell-based; conditions: MP2019, WT, MDR
[3] = system: Pseudomonas aeruginosa BAA 2108; test: MIC, 2-fold broth dilution; type: cell-based; conditions: BAA2108
[4] = system: Acinetobacter baumannii ATCC17978; test: MIC, 2-fold broth dilution; type: cell-based; conditions: WT
Procedure: (§1) Luria-Bertani (LB) broth (10 g of Bacto tryptone, 5 g of yeast extract, and 5 g of NaCl per liter; pH 7.0) was used for bacterial growth. The bacterial strains were inoculated overnight at 37° C. Cells were 1:100 subcultured into a fresh 30-ml volume of LB medium and grown at 37° C. to an optical density at 600 nm (OD600) of 0.3. When appropriate, the cells cultures were supplemented with 0.1% L-arabinose or 0.1 mM isopropyl β-d-1-thiogalactopyranoside (IPTG), to induce expression of the “Pore” protein. The cells were cultured up to OD600 of 1.0. The test compounds were dissolved in dimethylsulfoxide (DMSO) to make the final 10 mM stock solution. The minimal inhibitory concentrations (MIC) were determined using the 2-fold broth dilution method (1). The OD600 was measured using a Tecan Spark 10 M microplate reader.

[5] = system: Enterobacter cloacae ATCC13047; test: MIC, 2-fold broth dilution; type: cell-based; conditions: WT
Procedure: as §1

[6] = system: Klebsiella aerogenes ATCC13048; test: MIC, 2-fold broth dilution; type: cell-based; conditions: WT
Procedure: as §1

[7] = system: Klebsiella oxytoca ATCC700324; test: MIC, 2-fold broth dilution; type: cell-based; conditions: WT
Procedure: as §1

[8] = system: Klebsiella pneumoniae ATCC13883; test: MIC, 2-fold broth dilution; type: cell-based; conditions: WT
Procedure: as §1

[9] = system: Pseudomonas aeruginosa PAO1; test: MIC, 2-fold broth dilution; type: cell-based; conditions: WT
Procedure: as §1

[10] = system: Pseudomonas aeruginosa 273; test: MIC, 2-fold broth dilution; type: cell-based; conditions: WT, clinical non MDR
[11] = system: Pseudomonas aeruginosa 462; test: MIC, 2-fold broth dilution; type: cell-based; conditions: WT, clinical non MDR
[12] = system: Pseudomonas aeruginosa 515; test: MIC, 2-fold broth dilution; type: cell-based; conditions: WT, clinical non MDR
[13] = system: Acinetobacter baumannii AYE; test: MIC, 2-fold broth dilution; type: cell-based
[14] = system: Acinetobacter baumannii Ab5075; test: MIC, 2-fold broth dilution; type: cell-based
[15] = system: Burkholderia thailandensis; test: microbe, parasite or virus in culture; type: cell-based
[16] = system: Yersinia pestis KIM6+; test: microbe, parasite or virus in culture; type: cell-based
[17] = system: Staphylococcus aureus ATCC 25923; test: MIC, 2-fold broth dilution; type: cell-based; conditions: ATCC25923, non MDR
[18] = system: Staphylococcus aureus ATCC 700787; test: MIC, 2-fold broth dilution; type: cell-based; conditions: ATCC700787
[19] = system: Klebsiella oxytoca ATCC700324 Pore; test: MIC, permeabilized bacteria; type: cell-based
[20] = system: Pseudomonas aeruginosa PAO1 Δ6-Pore; test: MIC, permeabilized bacteria; type: cell-based
[21] = system: Acinetobacter baumannii AYE ΔB ΔIJK; test: MIC, permeabilized bacteria; type: cell-based
[22] = system: Acinetobacter baumannii Ab5075 ΔIJK; test: MIC, permeabilized bacteria; type: cell-based
[23] = system: Acinetobacter baumannii ATCC17978 Δ3-Pore; test: MIC, permeabilized bacteria; type: cell-based
[24] = system: Burkholderia thailandensis Δ2-Pore; test: microbe, parasite or virus in culture; type: cell-based
[25] = Cytotoxicity assay (CellTiter AQueous One Solution, MTS); type: cell-based; conditions: human, HEK293 cells, 24 h incubation
Procedure: Cytotoxicity of the compounds was evaluated using the CellTiter AQueous One Solution Cell Proliferation Assay (MTS; Promega) as previously described (2). HEK293 cells were incubated with a 2-fold serially diluted compounds for 24 h at 37° C. with 5% CO2, followed by addition of 20 μL of CellTiter AQueous and further incubated for 4 h at 37° C. The absorbance at 490 nm was recorded using a Tecan Spark 10 M plate reader. All measurements were done in three replicas. The growth curves were then fitted to a sigmoidal equation to determine the cytotoxicity concentration CC50.

[26] = E. coli BW25113, asterisk in column 1-10, read-out: MIC, μM 1-10
[27] = E. coli BW25113, asterisk in column 10-50, read-out: MIC, μM 10-50
[28] = E. coli BW25113, asterisk in column >50, read-out: MIC, μM >50

C[n+]1ccc(Nc2ccc(NC(=O)c3ccc(-c4ccc(C(=O)Nc5ccc(Nc6cc[n+](C)cc6)cc5)cc4)cc3)cc2)cc1 [Example 17, 4,4′-(((([1,1′-biphenyl]-4,4′-dicarbonyl)bis(azanediyl))bis(4,1-phenylene))bis(azanediyl))bis(1-methylpyridin-1-ium)]
MIC ([1]; E. coli BW25113, asterisk in column <1, read-out: MIC, μM <1): < 1 µM | MIC [2]: > 100 µM | MIC [3]: > 100 µM | MIC [4]: 6.2 µM | MIC [5]: 50 µM | MIC [6]: 6.2 µM | MIC [7]: > 100 µM | MIC [8]: 3.1 µM | MIC [9]: 6.2 µM | MIC [10]: 12.5 µM | MIC [11]: 12.5 µM | MIC [12]: > 100 µM | MIC [13]: > 100 µM | MIC [14]: 12.5 µM | MIC [15]: > 100 µM | MIC [16]: 100 µM | MIC [17]: 0.8 µM | MIC [18]: 0.4 µM | MIC [19]: > 100 µM | MIC [20]: 0.2 µM | MIC [21]: 0.2 µM | MIC [22]: 6.2 µM | MIC [23]: 0.8 µM | MIC [24]: 0.8 µM | CC50 at 24 h [25]: > 1000 µM

C[n+]1ccc(Nc2ccc(NC(=O)c3ccc(C(=O)Nc4ccc(Nc5cc[n+](C)cc5)cc4)c(Cl)c3)cc2)cc1 [Example 20, 4,4′-((((2-chloroterephthaloyl)bis(azanediyl))bis(4,1-phenylene))bis(azanediyl))bis(1-methylpyridin-1-ium)]
MIC [1, 26]: 1 to 10 µM | MIC [2]: 12.5 µM | MIC [3]: > 100 µM | MIC [4]: 3.1 µM | MIC [5]: 12.5 µM | MIC [6]: 12.5 µM | MIC [7]: 25 µM | MIC [8]: 12.5 µM | MIC [9]: 25 µM | MIC [10]: 12.5 µM | MIC [11]: 12.5 µM | MIC [12]: 25 µM | MIC [13]: 25 µM | MIC [14]: 25 µM | MIC [15]: > 100 µM | MIC [16]: 1.6 µM | MIC [17]: 0.8 µM | MIC [18]: 1.6 µM | MIC [19]: 25 µM | MIC [20]: 0.2 µM | MIC [21]: 0.2 µM | MIC [22]: 25 µM | MIC [23]: 0.8 µM | MIC [24]: 6.2 µM | CC50 at 24 h [25]: > 1000 µM

C[n+]1ccc(Nc2ccc(NC(=O)c3ccc(C(=O)Nc4ccc(Nc5cc[n+](C)cc5)cc4)c([N+](=O)[O-])c3)cc2)cc1 [Example 25, 4,4′-((((2-nitroterephthaloyl)bis(azanediyl))bis(4,1-phenylene))bis(azanediyl))bis(1-methylpyridin-1-ium)]
MIC [1, 26]: 1 to 10 µM | CC50 at 24 h [25]: 350 µM

C[n+]1ccc(Nc2ccc(NC(=O)c3ccc(C(=O)Nc4ccc(Nc5cc[n+](C)cc5)cc4)c(N)c3)cc2)cc1 [Example 30, 4,4′-((((2-aminoterephthaloyl)bis(azanediyl))bis(4,1-phenylene))bis(azanediyl))bis(1-methylpyridin-1-ium)]
MIC [1, 26]: 1 to 10 µM | CC50 at 24 h [25]: 480 µM

COc1cc(NC(=O)c2ccc(-c3ccc(C(=O)Nc4ccc([N+](C)(C)C)c(OC)c4)cc3)cc2)ccc1[N+](C)(C)C [Example 35, 4,4′-(([1,1′-biphenyl]-4,4′-dicarbonyl)bis(azanediyl))bis(2-methoxy-N,N,N-trimethylbenzenaminium)]
MIC [1, 27]: 10 to 50 µM | CC50 at 24 h [25]: 650 µM

C[N+](C)(C)c1ccc(NC(=O)c2ccc(-c3ccc(C(=O)Nc4ccc([N+](C)(C)C)c(Cl)c4)cc3)cc2)cc1Cl [Example 39, 4,4′-(([1,1′-biphenyl]-4,4′-dicarbonyl)bis(azanediyl))bis(2-chloro-N,N,N-trimethylbenzenaminium)]
MIC [1, 26]: 1 to 10 µM | CC50 at 24 h [25]: 330 µM

C[n+]1ccc(Nc2ccc(NC(=O)c3ccc(C(=O)Nc4ccc(Nc5cc[n+](C)cc5)cc4)c(OC(F)(F)F)c3)cc2)cc1 [Example 44, 4,4′-((((2-(trifluoromethoxy)terephthaloyl)bis(azanediyl))bis(4,1-phenylene))bis(azanediyl))bis(1-methylpyridin-1-ium)]
MIC [1, 26]: 1 to 10 µM | MIC [2]: 25 µM | MIC [3]: 100 µM | MIC [4]: 3.1 µM | MIC [5]: 25 µM | MIC [6]: 50 µM | MIC [7]: 100 µM | MIC [8]: 25 µM | MIC [9]: 25 µM | MIC [10]: 25 µM | MIC [11]: 50 µM | MIC [12]: 50 µM | MIC [13]: 25 µM | MIC [14]: 25 µM | MIC [15]: > 100 µM | MIC [16]: 1.6 µM | MIC [17]: 0.4 µM | MIC [18]: 0.2 µM | MIC [19]: 50 µM | MIC [20]: 0.4 µM | MIC [21]: 0.1 µM | MIC [22]: 12.5 µM | MIC [23]: 0.4 µM | MIC [24]: 6.2 µM | CC50 at 24 h [25]: 290 µM

C[n+]1ccc(Nc2ccc(NC(=O)c3ccc(C(=O)Nc4ccc(Nc5cc[n+](C)cc5)cc4)c(C(F)(F)F)c3)cc2)cc1 [Example 47]
MIC [1, 27]: 10 to 50 µM | CC50 at 24 h [25]: 350 µM

CN(C)c1ccc(NC(=O)c2ccc(-c3ccc(C(=O)Nc4ccc(N(C)C)c([N+](=O)[O-])c4)cc3)c(S(C)(=O)=O)c2)cc1 [Example 140]
MIC [1, 28]: > 50 µM

CN(C)c1ccc(NC(=O)c2ccc(-c3ccc(C(=O)Nc4ccc(N(C)C)c([N+](=O)[O-])c4)cc3)cc2)cc1[N+](=O)[O-] [Example 141]
MIC ([1]; BW25113, read-out: MIC, μM >50): > 50 µM

CCCCCCCCc1cn(CCOCCOCCOCCNC(=O)CCCC[C@H]2SC[C@H]3NC(=O)N[C@H]32)nn1 [Example 142]
MIC [1, 26]: 1 to 10 µM (≈ 0.583 to 5.83 µg/mL)

CN(C)c1ccc(NC(=O)c2ccc(-c3ccc(C(=O)Nc4ccc(N5CCCCC5)c(F)c4)cc3)cc2)cc1F [Example 143]
MIC [1, 26]: 1 to 10 µM (≈ 0.555 to 5.55 µg/mL)

C[N+](C)(C)c1ccc(NC(=O)c2ccc(-c3ccc(C(=O)Nc4ccc([N+]5(C)CCCCC5)cc4)cc3)cc2)cc1 [Example 144]
MIC [1, 28]: > 50 µM

COc1cc(NC(=O)c2ccc(-c3ccc(C(=O)Nc4ccc([N+]5(C)CCCCC5)cc4)cc3)cc2)ccc1[N+](C)(C)C [Example 145]
MIC [1, 28]: > 50 µM

C[N+](C)(C)c1ccc(NC(=O)c2ccc(-c3ccc(C(=O)Nc4ccc([N+](C)(C)C)c([N+](=O)[O-])c4)cc3)c(S(C)(=O)=O)c2)cc1 [Example 146]
MIC [1, 28]: > 50 µM

C[N+](C)(C)c1ccc(NC(=O)c2ccc(-c3ccc(C(=O)Nc4ccc([N+](C)(C)C)c(N)c4)cc3)c(S(C)(=O)=O)c2)cc1 [Example 147]
MIC [1, 28]: > 50 µM

CN(C)c1ccc(NC(=O)c2ccc(-c3ccc(C(=O)Nc4ccc(N(C)C)c([N+](=O)[O-])c4)cc3C#N)cc2)cc1 [Example 148]
MIC [1, 28]: > 50 µM

CN(C)c1ccc(NC(=O)c2ccc(-c3ccc(C(=O)Nc4ccc(N(C)C)c(C#N)c4)cc3C#N)cc2)cc1 [Example 149]
MIC [1, 28]: > 50 µM

C[N+](C)(C)c1ccc(NC(=O)c2ccc(-c3ccc(C(=O)Nc4ccc([N+](C)(C)C)c(C#N)c4)cc3C#N)cc2)cc1 [Example 150]
MIC [1, 28]: > 50 µM

C[N+](C)(C)c1ccc(NC(=O)c2ccc(-c3ccc(C(=O)Nc4ccc([N+](C)(C)C)c(N)c4)cc3C#N)cc2)cc1 [Example 153]
MIC [1, 26]: 1 to 10 µM

C[N+](C)(C)c1ccc(NC(=O)c2ccc(-c3ccc(C(=O)Nc4ccc([N+](C)(C)C)c([N+](=O)[O-])c4)cc3C#N)cc2)cc1 [Example 154]
MIC [1, 28]: > 50 µM
